Assay results published in EP3262942A1, “SELENODIARYLS FOR USE AS MICROBICIDE OR AS MEDICINE” (Evonik Degussa GmbH, priority 2016, dated 2018).

How the values were obtained:
Paecilomyces variotii = test: Growth test in microtiter plates, HA medium, 24 h, visual evaluation; format: cell-based; set-up: key: +: kein Wachstum im Vergleich zur Wachstumskontrolle; -: Wachstum wie Wachstumskontrolle
M. grisea H2O = test: microbe, parasite or virus in culture; format: cell-based, Magnaporthe grisea
M. grisea CM = test: microbe, parasite or virus in culture; format: cell-based, Magnaporthe grisea
Setaria italica = test: Crop plant growth test, seeds on filter discs, 4 days, visual evaluation; format: in vivo
Description: (§1) Testsubstanzen und Kontrollen werden auf Filterrondellen in Mikrotiterplatten (48 well) vorgelegt und das verwendete Lösungsmittel (DMSO) über Lyophilisation entfernt. Anschließend werden ca. 12 Samen pro Vertiefung (Setaria italical Lepidium sativum) zugeben, mit 200 µl sterilem Leitungswasser pro Vertiefung versetzt, mit einem Deckel versehen und in einer feuchten Kammer für 4 Tage im Pflanzenbrutschrank inkubiert (16h-Licht-8h-Dunkel-Rhythmus). Die Auswertung des Tests erfolgt optisch (+: mind. 75 % Wachstumshemmung im Vergleich zur Kontrolle, -: weniger als 75 % Wachstumshemmung im Vergleich zur Kontrolle.

Lepidium sativum = test: as above; format: in vivo
Description: as §1

Mucor miehei = test: Growth test in microtiter plates, HA medium, 24 h, visual evaluation; format: cell-based; set-up: key to Aktivität gegenüber M. miehei: +: kein Wachstum im Vergleich zur Wachstumskontrolle; -: Wachstum wie Wachstumskontrolle
[1] = tested on: alle getesteten Pathogene; format: cell-based; conditions: 5-50 µg/mL
Botrytis cinerea = test: microbe, parasite or virus in culture; format: cell-based
Penicillium notatum = test: Growth test in microtiter plates, HA medium, 24 h, visual evaluation; format: cell-based; set-up: key: +: kein Wachstum im Vergleich zur Wachstumskontrolle; -: Wachstum wie Wachstumskontrolle
Candida albicans = test: as above; format: cell-based; set-up: key: +: kein Wachstum im Vergleich zur Wachstumskontrolle; -: Wachstum wie Wachstumskontrolle
P. infestans = test: microbe, parasite or virus in culture; format: cell-based, Phytophthora infestans
[2] = Pyricularia grisea, H2O, 24 h, read-out: Aktivität gegenüber M. grisea H2O
[3] = Pyricularia grisea, 24 h, read-out: Aktivität gegenüber M. grisea CM
[4] = Phytophthora infestans, 24 h, read-out: Aktivität gegenüber P. infestans

| Structure (SMILES) | Aktivität gegenüber P. variotii (Paecilomyces variotii; 10µg/mL) | Aktivität gegenüber P. variotii (Paecilomyces variotii; 50µg/mL) | Aktivität gegenüber Nutzpflanzen: S. italica (Setaria italica; 10µg/R) | Aktivität gegenüber Nutzpflanzen: S. italica (Setaria italica; 20µg/R) | Aktivität gegenüber Nutzpflanzen: S. italica (Setaria italica; 50µg/R) | Aktivität gegenüber Nutzpflanzen: L. sativum (Lepidium sativum; 10µg/R) | Aktivität gegenüber Nutzpflanzen: L. sativum (Lepidium sativum; 20µg/R) | Aktivität gegenüber Nutzpflanzen: L. sativum (Lepidium sativum; 50µg/R) | Aktivität gegenüber M. miehei (Mucor miehei; 10µg/mL) | Aktivität gegenüber M. miehei (Mucor miehei; 50µg/mL) | Aktivität gegenüber P. notatum (Penicillium notatum; 10µg/mL) | Aktivität gegenüber P. notatum (Penicillium notatum; 50µg/mL) | Aktivität gegenüber C. albicans (Candida albicans; 10µg/mL) | Aktivität gegenüber C. albicans (Candida albicans; 50µg/mL) | Aktivität gegenüber M. grisea H2O (M. grisea H2O; 5µg/mL) | Aktivität gegenüber M. grisea H2O (M. grisea H2O; 10µg/mL) | Aktivität gegenüber M. grisea H2O (M. grisea H2O; 25µg/mL) | Aktivität gegenüber M. grisea H2O (M. grisea H2O; 50µg/mL) | Aktivität gegenüber M. grisea CM (M. grisea CM; 5µg/mL) | Aktivität gegenüber M. grisea CM (M. grisea CM; 10µg/mL) | further results |
| --- | --- | --- | --- | --- | --- | --- | --- | --- | --- | --- | --- | --- | --- | --- | --- | --- | --- | --- | --- | --- | --- |
| CC(C)(C)c1cc([Se]c2cc(C(C)(C)C)cc(C(C)(C)C)c2O)c(O)c(C(C)(C)C)c1 [Verbindung 14, Bis(3,5-di-tert-butyl-2-hydroxyphenyl)selen] | - | - | - (weniger als 75 % Wachstumshemmung im Vergleich zur Kontrolle) | - (weniger als 75 % Wachstumshemmung im Vergleich zur Kontrolle) | - (weniger als 75 % Wachstumshemmung im Vergleich zur Kontrolle) | - (weniger als 75 % Wachstumshemmung im Vergleich zur Kontrolle) | - (weniger als 75 % Wachstumshemmung im Vergleich zur Kontrolle) | - (weniger als 75 % Wachstumshemmung im Vergleich zur Kontrolle) | - | - | - | - | - | - |  |  |  |  |  |  | inhibition of growth at 5 µg/mL (M. grisea H2O; [2]): 0 to 25%; inhibition of growth at 10 µg/mL (M. grisea H2O; [2]): 0 to 25%; inhibition of growth at 25 µg/mL (M. grisea H2O; [2]): 0 to 25%; inhibition of growth at 50 µg/mL (M. grisea H2O; [2]): 0 to 25%; inhibition of growth at 5 µg/mL (M. grisea CM; [3]): 0 to 25%; inhibition of growth at 10 µg/mL (M. grisea CM; [3]): 0 to 25%; inhibition of growth at 25 µg/mL (M. grisea CM; [3]): 0 to 25%; inhibition of growth at 50 µg/mL (M. grisea CM; [3]): 0 to 25%; Aktivität im Wachstums- und Keimungshemmungstest gegen die getesteten Pathogene [1]: weder im Wachstums- noch im Keimungshemmungstest im verwendeten Konzentrationsbereich eine entsprechende Aktivität; inhibition of growth at 5 µg/mL (Botrytis cinerea; Botrytis cinerea, 24 h, 5µg/mL, read-out: Aktivität gegenüber B. cinerea): 0 to 25%; inhibition of growth at 10 µg/mL (Botrytis cinerea; Botrytis cinerea, 24 h, 10µg/mL, read-out: Aktivität gegenüber B. cinerea): 0 to 25%; inhibition of growth at 25 µg/mL (Botrytis cinerea; Botrytis cinerea, 24 h, 25µg/mL, read-out: Aktivität gegenüber B. cinerea): 0 to 25%; inhibition of growth at 50 µg/mL (Botrytis cinerea; Botrytis cinerea, 24 h, 50µg/mL, read-out: Aktivität gegenüber B. cinerea): 0 to 25%; inhibition of growth at 5 µg/mL (P. infestans; [4]): 0 to 25%; inhibition of growth at 10 µg/mL (P. infestans; [4]): 0 to 25%; inhibition of growth at 25 µg/mL (P. infestans; [4]): 0 to 25%; inhibition of growth at 50 µg/mL (P. infestans; [4]): 0 to 25% |
| COc1cc(C)c([Se]c2cc(OC)c(OC)cc2C)cc1OC [Verbindung 27, Bis(3,4-dimethoxy-6-methylphenyl)selen] | - | - | + (mind. 75 % Wachstumshemmung im Vergleich zur Kontrolle) | - (weniger als 75 % Wachstumshemmung im Vergleich zur Kontrolle) | + (mind. 75 % Wachstumshemmung im Vergleich zur Kontrolle) | - (weniger als 75 % Wachstumshemmung im Vergleich zur Kontrolle) | - (weniger als 75 % Wachstumshemmung im Vergleich zur Kontrolle) | - (weniger als 75 % Wachstumshemmung im Vergleich zur Kontrolle) | - | - | - | - | - | - | - (zwischen 0 und 25 % der Sporen nicht gekeimt) | - (zwischen 0 und 25 % der Sporen nicht gekeimt) | - (zwischen 0 und 25 % der Sporen nicht gekeimt) | + (zwischen 25 und 50 % der Sporen nicht gekeimt) | - (zwischen 0 und 25 % der Sporen nicht gekeimt) | - (zwischen 0 und 25 % der Sporen nicht gekeimt) | Aktivität gegenüber M. grisea CM (M. grisea CM; 25µg/mL): + (zwischen 25 und 50 % der Sporen nicht gekeimt); Aktivität gegenüber M. grisea CM (M. grisea CM; 50µg/mL): + (zwischen 25 und 50 % der Sporen nicht gekeimt); Aktivität gegenüber B. cinerea (Botrytis cinerea; 5µg/mL): - (key: +++: mehr als 75 % der Sporen nicht gekeimt; ++: zwischen 50 und 75 % der Sporen nicht gekeimt; +: zwischen 25 und 50 % der Sporen nicht gekeimt; -: zwischen 0 und 25 % der Sporen nicht gekeimt); Aktivität gegenüber B. cinerea (Botrytis cinerea; 10µg/mL): - (key: +++: mehr als 75 % der Sporen nicht gekeimt; ++: zwischen 50 und 75 % der Sporen nicht gekeimt; +: zwischen 25 und 50 % der Sporen nicht gekeimt; -: zwischen 0 und 25 % der Sporen nicht gekeimt); Aktivität gegenüber B. cinerea (Botrytis cinerea; 25µg/mL): - (key: +++: mehr als 75 % der Sporen nicht gekeimt; ++: zwischen 50 und 75 % der Sporen nicht gekeimt; +: zwischen 25 und 50 % der Sporen nicht gekeimt; -: zwischen 0 und 25 % der Sporen nicht gekeimt); Aktivität gegenüber B. cinerea (Botrytis cinerea; 50µg/mL): - (key: +++: mehr als 75 % der Sporen nicht gekeimt; ++: zwischen 50 und 75 % der Sporen nicht gekeimt; +: zwischen 25 und 50 % der Sporen nicht gekeimt; -: zwischen 0 und 25 % der Sporen nicht gekeimt); Aktivität gegenüber P. infestans (P. infestans; 5µg/mL): - (zwischen 0 und 25 % der Sporen nicht gekeimt); Aktivität gegenüber P. infestans (P. infestans; 10µg/mL): - (zwischen 0 und 25 % der Sporen nicht gekeimt); Aktivität gegenüber P. infestans (P. infestans; 25µg/mL): - (zwischen 0 und 25 % der Sporen nicht gekeimt); Aktivität gegenüber P. infestans (P. infestans; 50µg/mL): - (zwischen 0 und 25 % der Sporen nicht gekeimt); Wirksamkeit gegenüber P. infestans (P. infestans): keine Wirkung |
| COc1cc(C)c([Se]c2c(C)cc(OC)c(OC)c2OC)c(OC)c1OC [Verbindung 28, Bis(6-methyl-2,3,4-trimethoxyphenyl)selen] | - | - | - (weniger als 75 % Wachstumshemmung im Vergleich zur Kontrolle) | - (weniger als 75 % Wachstumshemmung im Vergleich zur Kontrolle) | + (mind. 75 % Wachstumshemmung im Vergleich zur Kontrolle) | - (weniger als 75 % Wachstumshemmung im Vergleich zur Kontrolle) | - (weniger als 75 % Wachstumshemmung im Vergleich zur Kontrolle) | - (weniger als 75 % Wachstumshemmung im Vergleich zur Kontrolle) | - | - | - | - | - | - | +++ (mehr als 75 % der Sporen nicht gekeimt) | +++ (mehr als 75 % der Sporen nicht gekeimt) | +++ (mehr als 75 % der Sporen nicht gekeimt) | +++ (mehr als 75 % der Sporen nicht gekeimt) | +++ (mehr als 75 % der Sporen nicht gekeimt) | +++ (mehr als 75 % der Sporen nicht gekeimt) | Aktivität gegenüber M. grisea CM (M. grisea CM; 25µg/mL): +++ (mehr als 75 % der Sporen nicht gekeimt); Aktivität gegenüber M. grisea CM (M. grisea CM; 50µg/mL): +++ (mehr als 75 % der Sporen nicht gekeimt); Aktivität gegenüber B. cinerea (Botrytis cinerea; 5µg/mL): - (key: +++: mehr als 75 % der Sporen nicht gekeimt; ++: zwischen 50 und 75 % der Sporen nicht gekeimt; +: zwischen 25 und 50 % der Sporen nicht gekeimt; -: zwischen 0 und 25 % der Sporen nicht gekeimt); Aktivität gegenüber B. cinerea (Botrytis cinerea; 10µg/mL): - (key: +++: mehr als 75 % der Sporen nicht gekeimt; ++: zwischen 50 und 75 % der Sporen nicht gekeimt; +: zwischen 25 und 50 % der Sporen nicht gekeimt; -: zwischen 0 und 25 % der Sporen nicht gekeimt); Aktivität gegenüber B. cinerea (Botrytis cinerea; 25µg/mL): - (key: +++: mehr als 75 % der Sporen nicht gekeimt; ++: zwischen 50 und 75 % der Sporen nicht gekeimt; +: zwischen 25 und 50 % der Sporen nicht gekeimt; -: zwischen 0 und 25 % der Sporen nicht gekeimt); Aktivität gegenüber B. cinerea (Botrytis cinerea; 50µg/mL): - (key: +++: mehr als 75 % der Sporen nicht gekeimt; ++: zwischen 50 und 75 % der Sporen nicht gekeimt; +: zwischen 25 und 50 % der Sporen nicht gekeimt; -: zwischen 0 und 25 % der Sporen nicht gekeimt); Aktivität gegenüber P. infestans (P. infestans; 5µg/mL): - (zwischen 0 und 25 % der Sporen nicht gekeimt); Aktivität gegenüber P. infestans (P. infestans; 10µg/mL): - (zwischen 0 und 25 % der Sporen nicht gekeimt); Aktivität gegenüber P. infestans (P. infestans; 25µg/mL): - (zwischen 0 und 25 % der Sporen nicht gekeimt); Aktivität gegenüber P. infestans (P. infestans; 50µg/mL): - (zwischen 0 und 25 % der Sporen nicht gekeimt); Wirksamkeit gegenüber P. infestans (P. infestans): keine Wirkung |
